# In US11530226B2, “Azepane inhibitors of menin-MLL interaction” (Janssen Pharmaceutica NV, priority 2016, dated 2022):
# Where two headings read alike, the source gives them in different places.
# Experiments:
# [1] = molecular target: T1, menin / FITC-MBM1 peptide (Menin/MLL) (Homo sapiens, UniProt O00255); assay: Menin/MLL fluorescence polarization (FP) assay; format: binding; conditions: read-out: (1) Menin FP assay (IC50 (μM))
# T1 sequence (O00255 1-610): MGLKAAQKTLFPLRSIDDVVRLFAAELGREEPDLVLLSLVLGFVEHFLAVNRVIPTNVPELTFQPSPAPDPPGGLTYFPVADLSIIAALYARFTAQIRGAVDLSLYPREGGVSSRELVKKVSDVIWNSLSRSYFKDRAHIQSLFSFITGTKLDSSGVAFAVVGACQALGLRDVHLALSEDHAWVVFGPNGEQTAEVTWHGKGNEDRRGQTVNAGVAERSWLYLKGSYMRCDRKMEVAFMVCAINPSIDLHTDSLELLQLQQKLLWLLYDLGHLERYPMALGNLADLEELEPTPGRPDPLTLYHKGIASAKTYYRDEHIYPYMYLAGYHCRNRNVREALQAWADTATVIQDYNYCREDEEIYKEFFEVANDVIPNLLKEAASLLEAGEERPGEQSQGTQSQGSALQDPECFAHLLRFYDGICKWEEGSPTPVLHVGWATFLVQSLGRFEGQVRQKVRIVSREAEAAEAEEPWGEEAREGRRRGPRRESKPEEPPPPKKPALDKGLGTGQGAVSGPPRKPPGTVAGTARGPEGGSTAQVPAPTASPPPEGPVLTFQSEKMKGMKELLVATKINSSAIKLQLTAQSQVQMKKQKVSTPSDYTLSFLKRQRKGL
# Experimental: Pharmacological Part 1) Menin/MLL Fluorescence Polarization Assay
# To a non-surface binding, black 384-well microtiter plate was added 50 nL 160× test compound in DMSO and 4 μL 2× menin in assay buffer (40 mM TrisHCl, pH 7.5, 50 mM NaCl, 1 mM DTT and 0.001% Tween 20). After incubation of test compound and menin for 10 min at ambient temperature, 4 μL 2×FITC-MBM1 peptide (FITC-β-alanine-SARWRPPARPGT-NH2) in assay buffer was added, the microtiter plate centrifuged at 1000 rpm for 1 min and the assay mixtures incubated for 15 min at ambient temperature. The relative amount of menin -FITC-MBM1 complex present in an assay mixture is determined by measuring the fluorescence polarization (FP) of the FITC label with a BMG Pherastar plate reader (ex. 485 nm/em. 520 nm) at ambient temperature. The final concentrations of reagents in the binding assay are 100 nM menin, 5 nM FITC-MBM1 peptide and 0.625%>DMSO in assay buffer. Dose-response titrations of test compounds are conducted using an 11 point, three-fold serial dilution scheme, starting at 31 μM.
# Compound potencies were determined by first calculating % inhibition at each compound concentration according to equation 1: % inhibition=((HC−LC)−(FPcompound−LC))/(HC−LC))*100 (Eqn 1)
# Where LC and HC are the FP values of the assay in the presence or absence of a saturating concentration of a compound that competes with FITC-MBM1 for binding to menin, and FP^compound is the measured FP value in the presence of the test compound. HC and LC FP values represent an average of at least 16 replicates per plate.
# Where Bottom and Top are the lower and upper asymptotes of the dose-response curve, respectively, IC50 is the concentration of compound that yields 50% inhibition of signal and h is the Hill coefficient.
# [2] = tested on: MV-4-1 1 cells (MLL-AF4); assay: Proliferation assay (spheroid-like growth, 8 d, live-cell imaging), MV-4-11; format: cell-based, human; conditions: MV-4-11 cells, absolute IC50 from AUC of confluence, read-out: (3) Spheroid assay MV-4-11 (IC50 (μM))
# Outline: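 Cells seeded in ultra-low attachment wells (1,500 MV-4-11, 300 MOLM14, 750 K562) with compound, 0.3% DMSO, grown 8 d at 37° C. Confluence imaged every four hours; AUC of confluence versus time, relative to vehicle, fitted for absolute IC50.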
# [3] = tested on: K562 cells (two MLL wildtype alleles); assay: Proliferation assay (spheroid-like growth, 8 d, live-cell imaging), K562 control cell line; format: cell-based; conditions: Homo sapiens, 192 h, absolute IC50 from AUC of confluence, read-out: (3) Spheroid assay K562
# Experimental: The anti-proliferative effect of menin/MLL protein/protein interaction inhibitor test compounds was assessed in human leukemia cell lines. The cell lines MV-4-1 1 and MOLM14 harbor MEL translocations and express the MEL fusion proteins MLL-AF4 and MLL-AF9, respectively, as well as the wildtype protein from the second allele. […] K562 was used as a control cell line containing two MLL wildtype alleles in order to exclude compounds that display general cytotoxic effects.
# MV-4-1 1 and MOLM14 were cultured in RPMI-1640 (Sigma Aldrich) supplemented with 10% fetal bovine serum (HyClone), 2 mM L-glutamine (Sigma Aldrich) and 50 μg/ml gentamycin (Gibco). […]
# In order to assess the anti-proliferative effects, 1,500 MV-4-1 1, 300 MOLM14 or 750 K562 cells were seeded in 200 μl media per well in 96-well round bottom, ultra-low attachment plates (Costar, catalogue number 7007). […] Spheroid like growth was monitored in real-time by live-cell imaging (IncuCyteZOOM, Essenbio, 4× objective) acquiring one image every four hours for 8d. Confluence (%) as a measure of spheroid size was determined using an integrated analysis tool.
# In order to determine the cumulative effect of the test compounds over time, the area under the curve (AUC) in a plot of confluence against time was calculated. […]
IC50 [1],IC50 [2],IC50 [3],"IC50 ([2]; Homo sapiens, MV4-11, 192 h)",SMILES
0.054 µM,2.5 µM,–,–,"CC(C)CNC1CCCN(c2ncnc3sc(CC(F)(F)F)cc23)CC1 (single isomer, unassigned) [Compound B1A, N-isobutyl-1-(6-(2,2,2-trifluoroethyl)thieno[2,3-d]pyrimidin-4-yl)azepan-4-amine]"
0.44 µM,8.9 µM,–,–,"CC(C)CNC1CCCN(c2ncnc3sc(CC(F)(F)F)cc23)CC1 (single isomer, unassigned) [Compound B1B, N-isobutyl-1-(6-(2,2,2-trifluoroethyl)thieno[2,3-d]pyrimidin-4-yl)azepan-4-amine]"
0.038 µM,–,9700 nM,0.44 µM,"FC(F)(F)Cc1cc2c(N3CCC[C@@H](NCc4ccccc4)CC3)ncnc2s1 [Compound 3, (R)N-benzyl-1-(6-(2,2,2-trifluoroethyl)thieno[2,3-d]pyrimidin-4-yl)azepan-4-amine]"
0.23 µM,–,8800 nM,2.9 µM,"FC(F)(F)Cc1cc2c(N3CCC[C@H](NCc4ccccc4)CC3)ncnc2s1 [Compound 4, (S)-N-benzyl-1-(6-(2,2,2-trifluoroethyl)thieno[2,3-d]pyrimidin-4-yl)azepan-4-amine]"
